Assay results reported in patent US20250353891A1 (MEDIMMUNE LIMITED, priority 2022, published 2025).
Like-named read-outs stand apart in the source and are kept apart here. Starred links: 1 amine or outer side, 2 acyl side, 3 side chain; linkers in the order of their positions; H or OH if unused. Non-standard residues stand in square brackets, D forms with d. Residues, ends and D or L forms follow the SMILES beside them. Groups on a side chain read outwards from the residue. *: point of attachment. C18 diacid = O=C(O)CCCCCCCCCCCCCCCCC(=O)*; γGlu = O=C(O)[C@H](CCC(=O)[*:2])N[*:1]; Stearoyl = CCCCCCCCCCCCCCCCCC(=O)*; αMeF = C[C@](N)(Cc1ccccc1)C(=O)O; PEG2 = NCCOCCOCCC(=O)O; AEEA = NCCOCCOCC(=O)O; Aib = CC(C)(N)C(=O)O

How the values were obtained:
[1] = Mouse acute food intake study; assay type: in vivo; details: male C57Bl/6 mice, s.c., cumulative food intake at 24 hr vs vehicle
Experimental: Male C57Bl/6 mice obtained from Jackson Laboratories or Charles River at 8-9 weeks of age and were housed one per cage in BioDaq (Research Diets) cages. Mice were placed on Alpha Dri bedding, standard chow diet (Envigo, 2018) and given water pouches. Mice were allowed to acclimate for 1-2 weeks. Body weight was measured to ensure appropriate acclimation. After acclimation, mice were sham dosed a minimum of 2 times prior to initiation of food intake study. On study day, mice were placed in clean cage bottoms, weighed, and fasted for 6-8 hours. Mice were sorted into groups based on average 24-hour food intake data and body weight. 1-2 hours prior to lights out, mice were dosed subcutaneously with one vehicle or test peptide dissolved in an appropriate vehicle at 5 mL/kg. Mice were left undisturbed and allowed access to food and water for 48 hours. Automated food intake was monitored in the BioDaq system was monitored during this time. Discrete food intake data was exported into MS Excel from which cumulative food intake data was generated and analyzed.

[2] = biological target: human GLP-1 receptor (hGLP-1R) (Homo sapiens, UniProt P43220); experiment: cAMP production (HTRF) in CHO cells expressing hGLP-1R; assay type: cell-based; set-up: expressed in transfected cells; details: for % Relative Potency Ratio: % GLP-1R activity relative to GLP-1 / % GlucR activity relative to glucagon; for EC50: Table 7, peptides modified at position 20, cAMP in CHO hGLP-1R cells, geometric mean, read-out: hGLP-1R EC50
Procedure, shortened: (§1)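 Potency values represent EC50 from 4-parameter logistic curves of HTRF % Delta F signal. Receptor-expressing CHO cells (hGCGR 2×10^5 cells/mL, hGLP-1R 1×10^5 cells/mL) were exposed for 30 min at room temperature before two-step cAMP detection.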

[3] = biological target: human glucagon receptor (hGCGR) (Homo sapiens, UniProt P47871); experiment: cAMP production (HTRF) in CHO cells expressing hGCGR; assay type: cell-based; set-up: expressed in transfected cells; details: cAMP in CHO hGCGR cells, geometric mean, read-out: hGluc-R EC50
Procedure, shortened: as §1

[4] = Table 7, peptides modified at position 20

Sequence of human GLP-1 receptor (hGLP-1R) (P43220 24-463): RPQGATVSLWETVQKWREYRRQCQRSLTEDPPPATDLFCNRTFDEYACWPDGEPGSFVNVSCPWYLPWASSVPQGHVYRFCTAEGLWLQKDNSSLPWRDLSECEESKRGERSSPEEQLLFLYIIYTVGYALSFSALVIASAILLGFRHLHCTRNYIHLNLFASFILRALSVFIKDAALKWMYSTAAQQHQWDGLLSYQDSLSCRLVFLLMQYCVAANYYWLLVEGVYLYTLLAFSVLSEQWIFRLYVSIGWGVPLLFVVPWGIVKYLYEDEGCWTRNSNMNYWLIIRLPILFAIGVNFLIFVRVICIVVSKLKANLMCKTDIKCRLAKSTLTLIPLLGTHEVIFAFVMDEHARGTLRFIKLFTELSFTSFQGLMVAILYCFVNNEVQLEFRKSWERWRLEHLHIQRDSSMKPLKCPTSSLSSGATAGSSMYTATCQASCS
Sequence of human glucagon receptor (hGCGR) (P47871 26-477): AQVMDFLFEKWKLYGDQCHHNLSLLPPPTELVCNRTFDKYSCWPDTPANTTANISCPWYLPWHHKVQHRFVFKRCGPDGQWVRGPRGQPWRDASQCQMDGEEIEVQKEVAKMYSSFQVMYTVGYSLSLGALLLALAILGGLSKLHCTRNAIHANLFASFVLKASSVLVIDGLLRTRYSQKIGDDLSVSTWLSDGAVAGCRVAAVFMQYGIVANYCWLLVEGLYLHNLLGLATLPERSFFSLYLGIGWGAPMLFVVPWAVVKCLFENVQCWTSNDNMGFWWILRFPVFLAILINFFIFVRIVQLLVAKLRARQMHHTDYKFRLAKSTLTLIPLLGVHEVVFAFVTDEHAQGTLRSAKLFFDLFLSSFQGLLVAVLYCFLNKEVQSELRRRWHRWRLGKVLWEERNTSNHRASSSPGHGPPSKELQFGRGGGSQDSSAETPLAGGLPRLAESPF

% Relative Potency Ratio ([2]; Table 6) | EC50 ([3]; Table 6, peptides modified at position 17) [nM] | EC50 [2] [nM] | % Relative Potency Ratio ([2]; Table 7) | EC50 [3, 4] [nM] | SMILES | 24 hr % Vehicle Food Intake ([1]; dose 10 nmol/kg) [%] | 24 hr % Vehicle Food Intake ([1]; dose 3 nmol/kg) [%]
227.0 | 0.0265 |  |  |  | CCCCCCCCCCCCCCCCCC(=O)N[C@@H](CCC(=O)N[C@@H](CCC(=O)NCCOCCOCCC(=O)NCCOCCOCCC(=O)NCCCC[C@H](NC(=O)[C@H](CO)NC(=O)[C@H](CC(=O)O)NC(=O)[C@H](CC(C)C)NC(=O)C(C)(C)NC(=O)[C@H](CCCCN)NC(=O)[C@H](CO)NC(=O)[C@@H](NC(=O)[C@H](CC(=O)O)NC(=O)[C@H](CO)NC(=O)[C@@H](NC(=O)[C@](C)(Cc1ccccc1)NC(=O)[C@H](CO)NC(=O)CNC(=O)[C@H](CCC(N)=O)NC(=O)C(C)(C)NC(=O)[C@@H](N)Cc1c[nH]cn1)[C@@H](C)O)C(C)C)C(=O)N[C@@H](CCCNC(=N)N)C(=O)N[C@@H](C)C(=O)N[C@@H](CCC(N)=O)C(=O)N[C@@H](CC(=O)O)C(=O)N[C@@](C)(Cc1ccccc1)C(=O)N[C@H](C(=O)N[C@@H](CCC(N)=O)C(=O)NC(C)(C)C(=O)N[C@H](C(=O)N[C@@H](C)C(=O)N[C@@H](CC(N)=O)C(N)=O)[C@@H](C)CC)C(C)C)C(=O)O)C(=O)O [Peptide 102] (H-H[Aib]QGS[αMeF]TSDVSK[Aib]LDSK([PEG2-PEG2-γGlu-γGlu-Stearoyl])RAQD[αMeF]VQ[Aib]IAN-NH2; N-terminus assumed) | 81.9 | 
 |  | 0.0488 | 4.2 | 0.104 | CC[C@H](C)[C@H](NC(=O)[C@H](CO)NC(=O)[C@H](CCC(N)=O)NC(=O)[C@@H](NC(=O)[C@H](Cc1ccccc1)NC(=O)[C@H](CC(=O)O)NC(=O)[C@H](CCCCNC(=O)COCCOCCNC(=O)COCCOCCNC(=O)CC[C@H](NC(=O)CCCCCCCCCCCCCCCCC(=O)O)C(=O)O)NC(=O)[C@H](C)NC(=O)C(C)(C)NC(=O)[C@H](CCCNC(=N)N)NC(=O)[C@H](CO)NC(=O)[C@H](CC(=O)O)NC(=O)[C@H](CC(C)C)NC(=O)[C@](C)(Cc1ccccc1)NC(=O)[C@H](CCCCN)NC(=O)[C@H](CO)NC(=O)[C@@H](NC(=O)[C@H](CC(=O)O)NC(=O)[C@H](CO)NC(=O)[C@@H](NC(=O)[C@](C)(Cc1ccccc1)NC(=O)[C@H](CO)NC(=O)CNC(=O)[C@H](Cc1c[nH]cn1)NC(=O)C(C)(C)NC(=O)[C@@H](N)Cc1c[nH]cn1)[C@@H](C)O)C(C)C)C(C)C)C(=O)N[C@@H](C)C(=O)N[C@@H](CC(N)=O)C(=O)N[C@H](C(N)=O)[C@@H](C)O [Peptide 223] (H-H[Aib]HGS[αMeF]TSDVSK[αMeF]LDSR[Aib]AK([AEEA-AEEA-γGlu-C18 diacid])DFVQSIANT-NH2) | 63.6 | 
 |  | 0.0849 | 1.2 | 0.0511 | CC[C@H](C)[C@H](NC(=O)[C@H](Cc1c[nH]c2ccccc12)NC(=O)[C@H](CCC(N)=O)NC(=O)[C@@H](NC(=O)[C@](C)(Cc1ccccc1)NC(=O)[C@H](CC(=O)O)NC(=O)[C@H](CCCCNC(=O)COCCOCCNC(=O)COCCOCCNC(=O)CC[C@H](NC(=O)CC[C@H](NC(=O)CCCCCCCCCCCCCCCCC(=O)O)C(=O)O)C(=O)O)NC(=O)[C@H](C)NC(=O)[C@H](C)NC(=O)[C@H](CCCNC(=N)N)NC(=O)[C@H](CO)NC(=O)[C@H](CC(=O)O)NC(=O)[C@H](CC(C)C)NC(=O)[C@](C)(Cc1ccccc1)NC(=O)[C@H](CCCCN)NC(=O)[C@H](CO)NC(=O)[C@@H](NC(=O)[C@H](CC(=O)O)NC(=O)[C@H](CO)NC(=O)[C@@H](NC(=O)[C@](C)(Cc1ccccc1)NC(=O)[C@H](CO)NC(=O)CNC(=O)[C@H](Cc1c[nH]cn1)NC(=O)C(C)(C)NC(=O)[C@@H](N)Cc1c[nH]cn1)[C@@H](C)O)C(C)C)C(C)C)C(=O)N[C@@H](C)C(=O)N[C@@H](CC(N)=O)C(=O)N[C@H](C(N)=O)[C@@H](C)O [Peptide 247] (H-H[Aib]HGS[αMeF]TSDVSK[αMeF]LDSRAAK([AEEA-AEEA-γGlu-γGlu-C18 diacid])D[αMeF]VQWIANT-NH2; N-terminus assumed) | 66.9 | 
 |  | 0.00735 | 0.4 | 0.00166 | CCCCCCCCCCCCCCCCCC(=O)N[C@@H](CCC(=O)N[C@@H](CCC(=O)NCCOCCOCC(=O)NCCOCCOCC(=O)NCCCC[C@H](NC(=O)[C@H](C)NC(=O)[C@H](C)NC(=O)[C@H](CCCNC(=N)N)NC(=O)[C@H](CO)NC(=O)[C@H](CC(=O)O)NC(=O)[C@H](CC(C)C)NC(=O)[C@](C)(Cc1ccccc1)NC(=O)[C@H](CCCCN)NC(=O)[C@H](CO)NC(=O)[C@@H](NC(=O)[C@H](CC(=O)O)NC(=O)[C@H](CO)NC(=O)[C@@H](NC(=O)[C@](C)(Cc1ccccc1)NC(=O)[C@H](CO)NC(=O)CNC(=O)[C@H](Cc1c[nH]cn1)NC(=O)C(C)(C)NC(=O)[C@@H](N)Cc1c[nH]cn1)[C@@H](C)O)C(C)C)C(=O)N[C@@H](CC(=O)O)C(=O)N[C@@](C)(Cc1ccccc1)C(=O)N[C@H](C(=O)N[C@@H](CCC(N)=O)C(=O)NC(C)(C)C(=O)N[C@H](C(=O)N[C@@H](C)C(=O)N[C@@H](CC(N)=O)C(=O)N[C@H](C(N)=O)[C@@H](C)O)[C@@H](C)CC)C(C)C)C(=O)O)C(=O)O [Peptide 257] (H-H[Aib]HGS[αMeF]TSDVSK[αMeF]LDSRAAK([AEEA-AEEA-γGlu-γGlu-Stearoyl])D[αMeF]VQ[Aib]IANT-NH2) | 96.5 | 94.7
 |  | 0.0197 | 1.8 | 0.0184 | CC[C@H](C)[C@H](NC(=O)C(C)(C)NC(=O)[C@H](CCC(N)=O)NC(=O)[C@@H](NC(=O)[C@](C)(Cc1ccccc1)NC(=O)[C@H](CC(=O)O)NC(=O)[C@H](CCCCNC(=O)COCCOCCNC(=O)COCCOCCNC(=O)CC[C@H](NC(=O)CCCCCCCCCCCCCCCCC(=O)O)C(=O)O)NC(=O)[C@H](C)NC(=O)[C@H](C)NC(=O)[C@H](CCCNC(=N)N)NC(=O)[C@H](CO)NC(=O)[C@H](CC(=O)O)NC(=O)[C@H](CC(C)C)NC(=O)[C@](C)(Cc1ccccc1)NC(=O)[C@H](CCCCN)NC(=O)[C@H](CO)NC(=O)[C@@H](NC(=O)[C@H](CC(=O)O)NC(=O)[C@H](CO)NC(=O)[C@@H](NC(=O)[C@](C)(Cc1ccccc1)NC(=O)[C@H](CO)NC(=O)CNC(=O)[C@H](Cc1c[nH]cn1)NC(=O)C(C)(C)NC(=O)[C@@H](N)Cc1c[nH]cn1)[C@@H](C)O)C(C)C)C(C)C)C(=O)N[C@@H](C)C(=O)N[C@@H](CCC(=O)O)C(=O)N[C@H](C(N)=O)[C@@H](C)O [Peptide 300] (H-H[Aib]HGS[αMeF]TSDVSK[αMeF]LDSRAAK([AEEA-AEEA-γGlu-C18 diacid])D[αMeF]VQ[Aib]IAET-NH2) | 45.2 | 
